Results published in patent US20090035287A1, “ATRIAL NATRIURETIC PEPTIDE (ANP) SPLICE VARIANTS AND METHODS OF USING SAME” (priority 2005, published 2009).
Bridge positions count the residues as written; N and C are the ends. Ends that are not written are not given here.

T1: membrane-bound guanylyl cyclase (Rattus norvegicus, UniProt P18910)
T1 construct: from tissue; host or cells: lung of Wistar rats (membrane preparation)
T1 sequence (P18910 29-1057): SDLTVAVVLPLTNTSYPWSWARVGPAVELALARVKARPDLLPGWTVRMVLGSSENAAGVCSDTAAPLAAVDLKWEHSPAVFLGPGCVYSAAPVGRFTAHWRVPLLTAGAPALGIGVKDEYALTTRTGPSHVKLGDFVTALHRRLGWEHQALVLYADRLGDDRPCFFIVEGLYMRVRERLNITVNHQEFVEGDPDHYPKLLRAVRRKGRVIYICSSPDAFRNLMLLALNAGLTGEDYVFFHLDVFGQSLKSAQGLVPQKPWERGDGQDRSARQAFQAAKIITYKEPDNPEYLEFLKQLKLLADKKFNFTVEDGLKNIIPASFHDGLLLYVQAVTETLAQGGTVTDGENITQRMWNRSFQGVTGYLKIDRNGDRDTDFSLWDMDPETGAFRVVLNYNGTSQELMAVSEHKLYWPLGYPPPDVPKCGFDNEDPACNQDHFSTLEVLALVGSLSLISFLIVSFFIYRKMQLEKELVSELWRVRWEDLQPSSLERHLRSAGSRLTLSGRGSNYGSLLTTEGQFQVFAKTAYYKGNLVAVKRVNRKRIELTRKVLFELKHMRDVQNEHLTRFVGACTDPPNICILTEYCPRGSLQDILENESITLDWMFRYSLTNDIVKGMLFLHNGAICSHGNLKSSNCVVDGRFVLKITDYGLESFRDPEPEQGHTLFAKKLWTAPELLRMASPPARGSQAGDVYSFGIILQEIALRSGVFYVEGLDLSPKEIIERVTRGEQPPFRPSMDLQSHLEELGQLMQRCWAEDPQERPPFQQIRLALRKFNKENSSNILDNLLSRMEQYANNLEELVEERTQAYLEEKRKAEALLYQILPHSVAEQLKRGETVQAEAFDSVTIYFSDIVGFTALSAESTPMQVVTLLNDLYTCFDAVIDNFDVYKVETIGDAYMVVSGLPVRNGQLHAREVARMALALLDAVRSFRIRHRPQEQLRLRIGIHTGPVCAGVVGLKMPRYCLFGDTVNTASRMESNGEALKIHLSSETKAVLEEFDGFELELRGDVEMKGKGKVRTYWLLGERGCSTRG

T2: membrane-bound guanylyl cyclase isolated from the lung of Wistar rats (rat, UniProt P18910 29-1057)
T2 sequence (looked up): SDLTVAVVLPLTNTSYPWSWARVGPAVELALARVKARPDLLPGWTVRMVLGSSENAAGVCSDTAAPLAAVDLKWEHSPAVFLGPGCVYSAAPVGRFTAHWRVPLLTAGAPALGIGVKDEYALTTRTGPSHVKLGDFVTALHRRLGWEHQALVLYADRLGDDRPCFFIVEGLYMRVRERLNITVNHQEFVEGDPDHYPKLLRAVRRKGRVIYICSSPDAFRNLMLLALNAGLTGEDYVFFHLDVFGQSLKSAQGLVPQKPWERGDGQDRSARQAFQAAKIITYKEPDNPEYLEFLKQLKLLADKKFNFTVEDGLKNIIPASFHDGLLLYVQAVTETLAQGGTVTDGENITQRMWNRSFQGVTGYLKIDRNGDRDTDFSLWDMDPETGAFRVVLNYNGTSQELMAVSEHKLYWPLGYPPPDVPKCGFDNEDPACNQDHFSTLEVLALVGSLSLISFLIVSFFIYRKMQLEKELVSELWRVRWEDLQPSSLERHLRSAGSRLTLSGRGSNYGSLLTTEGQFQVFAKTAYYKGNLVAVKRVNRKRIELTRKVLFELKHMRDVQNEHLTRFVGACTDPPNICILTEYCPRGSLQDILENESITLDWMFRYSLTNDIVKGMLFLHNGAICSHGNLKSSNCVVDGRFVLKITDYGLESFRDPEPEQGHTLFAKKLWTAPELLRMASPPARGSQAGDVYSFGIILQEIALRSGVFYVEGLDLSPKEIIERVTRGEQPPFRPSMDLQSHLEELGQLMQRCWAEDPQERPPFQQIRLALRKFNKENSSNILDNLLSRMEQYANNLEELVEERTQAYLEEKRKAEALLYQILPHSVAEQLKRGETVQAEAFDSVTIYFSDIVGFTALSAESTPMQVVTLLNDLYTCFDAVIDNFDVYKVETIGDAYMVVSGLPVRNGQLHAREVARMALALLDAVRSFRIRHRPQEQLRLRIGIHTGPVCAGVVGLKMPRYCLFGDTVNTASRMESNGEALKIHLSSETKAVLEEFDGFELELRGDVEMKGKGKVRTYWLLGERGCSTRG


What was measured:
[1] = tested on: spontaneously hypertensive rats (SHR); assay: Renal and cardiovascular effects in anesthetized spontaneously hypertensive rats, 30-min intravenous infusion; type: in vivo, rat; settings: for heart rate change: i.v. 30-min infusion
Protocol: The assay was performed with anesthetized spontaneously hypertensive rats (SHR) following intravenous administration of the various ANP-proteins by a 30-min infusion.
Male Wistar-Okamoto derived spontaneously hypertensive rats (SHR) provided by National Laboratory Animal Center were used. Space allocation for 6 rats was 45×23×15 cm. All animals were maintained in a controlled temperature (23° C.-24° C.) and humidity (60%-70%) environment with 12 hours light dark cycles for at least one week in MDS Pharma Services—Taiwan Laboratory prior to use. Free access to standard lab chow (Laboratory Rodent Diet MF-18; Oriental Yeast Co., Ltd. Japan) and RO water was granted. All aspects of this work including housing, experimentation and disposal of animals were performed in general accordance with the Guide for the Care and Use of Laboratory Animals (National Academy Press, Washington, D.C., 1996).
Groups of 5 male rats (SHR) weighing 250-300 g were employed. Rats were anaesthetized with Inactin (120 mg/kg i.p.). The left carotid artery, jugular vein, and bladder were cannulated with polyethylene (PE50) catheters. The arterial cannula was connected via a Statham (P 23×L) pressure transducer to a NEC/San-Ei Type 366 polygraph for direct mean arterial blood pressure measurements. Heart rate was derived from pulse pressure signals and monitored on a Data Acquisition and Analytic System (Power Lab 8/SP, AD Instruments, Australia). The body temperature was kept at 37° C. using a thermostat-controlled hot plate. The animals were primed with 1 ml 2.5% dextrose+0.45% NaCl intravenously, followed by continuous infusion of the same solution at a rate of 2.4 ml/hr with an infusion pump throughout the experiments. After an equilibration period of 30 min, a 30-min control urine sample was collected. Test compounds were dissolved in 2.5% dextrose+0.45% NaCl and delivered by infusion for 30 min at 2.4 ml/hr. […] The infusion rate was 2.4 ml/hr. Urine samples were collected through the catheter during infusion of peptides and in the two 30-min post-peptide periods. Urinary Na^+ concentration was measured with an atomic absorption spectrometer. All values represent mean±SEM and Dunnett's test was applied for comparison between corresponding time points for each drug-treated and control groups. Differences were considered significant at P<0.05.

[2] = molecular target: T1, membrane-bound guanylyl cyclase; assay: cGMP accumulation after activation of membrane-bound guanylyl cyclase in isolated rat lung membranes; type: biochemical
Protocol: The agonist-like activity of the ANP variant peptides was evaluated by in vitro assays designed to measure cGMP accumulation after activation of membrane-bound guanylyl cyclase. Guanylyl cyclases (GC) are a family of enzymes (EC 4.6.1.2) that catalyse the formation of the second messenger cyclic GMP (cGMP) from GTP. Activation of GCs leads to an increase in the concentration of the intracellular messenger molecule cGMP. GCs are subdivided into soluble GCs and GCs that are membrane-bound and linked to a receptor. Activation occurs through binding of nitric oxide (NO) and peptide hormones, respectively. Six different isoforms of membrane-bound GC (GC-A, GC-B, GC-C, GC-D, GC-E and GC-F) are known. The guanylyl cyclase A (GC-A) isoform acts as the receptor for the natriuretic peptides ANP and BNP.
As ANP is known to stimulate GC-A, the effect of known and variant ANP peptides on guanlyl cyclase was examined. The procedure employed was essentially as described in Glover V, et al., 1995 Life Sci. 57(22): 2073-2079; Nashida T, Imai A and Shimomura H (2000), Mol Cell Biochem. 208(1-2): 27-35. Briefly, membrane-bound guanylyl cyclase isolated from the lung of Wistar rats was used. […] The reaction was terminated by addition of 1 N HCl and the supernatant evaluated for cGMP level by EIA. Enzyme activity was determined spectrophotometrically by measuring the formation of cGMP. […]

[3] = molecular target: T2, membrane-bound guanylyl cyclase …; assay: cell-based or functional assay
[4] = i.v. infusion 1 μg/kg/min × 30 min
[5] = i.v. infusion 3 μg/kg/min × 30 min
[6] = i.v. infusion 1 and 3 μg/kg/min × 30 min

| Molecule | heart rate change [1] | absolute change of mean arterial pressure (MAP-infusion minus MAP-baseline) [1, 4] [mmHg] | absolute change of mean arterial pressure (MAP-infusion minus MAP-baseline) [1, 5] [mmHg] | urine volume (diuresis) [1, 5] | cGMP accumulation, agonist activity in words [2] | cGMP accumulation after activation of membrane-bound guanylyl cyclase (EIA), EC50 [3] [nM] | also measured |
| --- | --- | --- | --- | --- | --- | --- | --- |
| CC[C@H](C)[C@@H]1NC(=O)[C@H](CCCNC(=N)N)NC(=O)[C@H](CC(=O)O)NC(=O)[C@H](CCSC)NC(=O)[C@H](CCCNC(=N)N)NC(=O)CNC(=O)CNC(=O)[C@H](Cc2ccccc2)NC(=O)[C@@H](NC(=O)[C@H](CO)NC(=O)[C@H](CO)NC(=O)[C@H](CCCNC(=N)N)NC(=O)[C@H](CCCNC(=N)N)NC(=O)[C@H](CC(C)C)NC(=O)[C@@H](N)CO)CSSC[C@@H](C(=O)N[C@@H](CC(N)=O)C(=O)N[C@@H](CO)C(=O)N[C@@H](Cc2ccccc2)C(=O)N[C@@H](CCCNC(=N)N)C(=O)N[C@@H](Cc2ccc(O)cc2)C(=O)O)NC(=O)CNC(=O)[C@H](CC(C)C)NC(=O)CNC(=O)[C@H](CO)NC(=O)[C@H](CCC(N)=O)NC(=O)[C@H](C)NC(=O)CNC1=O [ANP-28, reference compound] | – | – | – | – | – | – | heart rate change ([1]; listed as ANP28): decrease in heart rate |
| CC[C@H](C)[C@@H]1NC(=O)[C@H](CCCNC(=N)N)NC(=O)[C@H](CC(=O)O)NC(=O)[C@H](CCSC)NC(=O)[C@H](CCCNC(=N)N)NC(=O)CNC(=O)CNC(=O)[C@H](Cc2ccccc2)NC(=O)[C@@H](NC(=O)[C@H](CO)NC(=O)[C@H](CO)NC(=O)[C@H](CCCNC(=N)N)NC(=O)[C@H](CCCNC(=N)N)NC(=O)[C@H](CC(C)C)NC(=O)[C@@H](N)CO)CSSC[C@@H](C(=O)N[C@@H](CC(N)=O)C(=O)N[C@@H](CO)C(=O)N[C@@H](Cc2ccccc2)C(=O)N[C@@H](CCCNC(=N)N)C(=O)N[C@@H](Cc2ccc(O)cc2)C(=O)O)NC(=O)CNC(=O)[C@H](CC(C)C)NC(=O)CNC(=O)[C@H](CO)NC(=O)[C@H](CCC(N)=O)NC(=O)[C@H](C)NC(=O)CNC1=O [Carperitide, reference compound] | less pronounced | – | – | – | – | – | – |
| SLRRSSCFGGRMDRIGAQSGLGCNSFRELNWLRPLMEQPLLSLME (disulfide 7-23) [ANP-45] | decrease in heart rate | −28 | −37 | pronounced diuresis, similar in magnitude to that of Carperitide | level comparable to the known control molecules | – | urinary sodium excretion (natriuresis) [1, 6]: dose-dependent increase in urinary sodium excretion; urine volume (diuresis), dose dependence [1, 6]: dose-dependent increase in urine volume |
| TAPRSLRRSSCFGGRMDRIGAQSGLGCNSFRELNWLRPLMEQPLLSLME (disulfide 11-27) [ANP-49] | decrease in heart rate | −1 | −23 | even higher increase in urine volume relative to Carperitide | level comparable to the known control molecules | – | urine volume (diuresis) [1, 4]: such effect was not observed |
| SLRRSSCFGGRMDRIGAQSGLGCNSFRELNWLRPLMEQPLLSLME (disulfide 7-23) [ANP-45 (variant)] | – | – | – | – | – | 86.3 | – |
| TAPRSLRRSSCFGGRMDRIGAQSGLGCNSFRELNWLRPLMEQPLLSLME (disulfide 11-27) [ANP-49 (variant)] | – | – | – | – | – | 138 | – |
